According to US6140338A, “Chemokine receptor antagonists” (Banyu Pharmaceutical, Co., Ltd., priority 1996, dated 2000):

Assays:
chemokine receptor CCR1 = experiment: Activities to intracellular cyclic AMP concentration (CHO cells stably expressing CCR1); assay type: cell-based, human
Procedure: By using CHO cells which stably express the chemokine receptor CCR1, the activity of the test compounds to intracellular cyclic AMP concentration had been studied.
The CHO cells was suspended in Locke's solution (pH 7.4:154 mM of sodium chloride, 5.6 mM of potassium chloride, 2 mM of calcium chloride, 1 mM of magnesium chloride, 0.1% glucose, 10 mM of Hepes and 0.3 mM of isobutylmethylxanthine), and preliminarily incubated at a temperature of 37° C. for 5 minutes, and 100 nM of hMIP-1 alpha and 0.01 mM of Forskolin were added thereto. The reaction was kept for 10 minutes and terminated by adding trichloroacetic acid. The reaction mixture was centrifuged at 15000 rpm for 5 minutes and supernatant was obtained. Trichloroacetic acid in the supernatant was removed by extraction with diethyl ether, and the supernatant was evaporated to dryness by centrifugal evaporator. The cyclic AMP concentration in the sample thus obtained was measured by cyclic AMP kit (produced by Amersham). The activity of test compounds to the cyclic AMP concentration was obtained by studying antagonism against hMIP-1 alpha by adding 0.01 mM of the test compounds 5 minutes before adding 100 nM of hMIP-1 alpha.

CCR3 = CCR3 antagonist activities (Eotaxin-induced intracellular calcium increase in human eosinophils); assay type: cell-based; settings: 41 nM compound 5 minutes before agonist Eotaxin (10 nM), Fura2
Procedure: By using human eosinophil which stably express CCR3, the activity of the compounds of the present invention to intracellular calcium concentration was measured by the following method. […] of Fura2 acetoxymethyl ester (produced by Dojin Kagaku Laboratories) was added to eosinophils and incubated for 30 minutes at a temperature of 37° C. Then, the mixture was excited by irradiation with light at 340 nm and 380 nm, fluorescence at 500 nm was measured, 340/380 ratio was monitored, thereby intracellular calcium concentration was calculated.

[1] = molecular target: T1, human chemokine receptor CCR1 (Homo sapiens, UniProt P32246); experiment: Inhibitory activity against binding to the chemokine receptor CCR1 ([125I]MIP-1 alpha binding, CHO cells); settings: 50 pM [125I]MIP-1 alpha, 90 minutes, 37° C, pH 7.4, CHO cells expressing CCR1; read-out: 50% inhibitory concentration (IC50 value) against [125I]MIP-1 alpha binding
T1 construct: expressed in transfected cells
T1 sequence (P32246 1-355): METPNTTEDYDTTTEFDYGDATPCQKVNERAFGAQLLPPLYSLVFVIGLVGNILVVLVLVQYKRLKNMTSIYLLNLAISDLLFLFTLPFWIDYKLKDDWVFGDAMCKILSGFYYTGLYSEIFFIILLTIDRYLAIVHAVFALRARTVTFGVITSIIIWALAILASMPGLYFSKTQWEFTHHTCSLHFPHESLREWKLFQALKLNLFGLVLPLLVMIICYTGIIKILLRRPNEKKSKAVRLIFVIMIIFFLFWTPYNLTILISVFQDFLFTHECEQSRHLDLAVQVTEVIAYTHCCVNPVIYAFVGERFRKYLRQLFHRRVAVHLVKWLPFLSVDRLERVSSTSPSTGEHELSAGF
Procedure: cDNAs which code human chemokine receptor CCR1 was subcloned to Hind III/Xba I part of the expression vector pRc/CMV (Invitrogen) to prepare pRc/CMV CCR1. Then, pRc/CMV CCR1 was transfected to CHO cells by using lipofectamine (GIBCO) to obtain a stable cell strain resistant against 0.5 mg/ml of G418.
The stable cell strain, 50 pM[^125 I]MIP-1 alpha (2000 Ci/mmol, manufactured by New England Nuclear) and a test compound were suspended in 0.2 ml of Krebs-Ringer/0.1% bovine serum albumin/0.1% glucose (pH 7.4), and incubated for 90 minutes at a temperature of 37° C. Then, it was subjected to filtration by means of a glass filter GF/C which was preliminarily impregnated in 1% of polyethyleneimine, and washed with 1 ml of Krebs-Ringer/0.1% bovine serum albumin/0.1% glucose (pH 7.4), whereby radio activity on the glass filter was measured. The binding affinity to the chemokine receptors CCR1 was shown as a 50% inhibitory concentration (IC50 value) of the compound of the present invention against [^125 I]MIP-1 alpha binding.

chemokine receptor CCR3 = molecular target: T2, chemokine receptor CCR3 (Homo sapiens, UniProt P51677); experiment: Inhibitory activity against binding to the chemokine receptor CCR3 ([125I]Eotaxin binding, CHO cells); settings: 50 pM [125I]Eotaxin, 90 minutes, 37° C, pH 7.4, CHO cells expressing CCR3; read-out: 50% inhibitory concentration (IC50 value) against [125I]Eotaxin binding
T2 construct: expressed in transfected cells
T2 sequence (P51677 1-355): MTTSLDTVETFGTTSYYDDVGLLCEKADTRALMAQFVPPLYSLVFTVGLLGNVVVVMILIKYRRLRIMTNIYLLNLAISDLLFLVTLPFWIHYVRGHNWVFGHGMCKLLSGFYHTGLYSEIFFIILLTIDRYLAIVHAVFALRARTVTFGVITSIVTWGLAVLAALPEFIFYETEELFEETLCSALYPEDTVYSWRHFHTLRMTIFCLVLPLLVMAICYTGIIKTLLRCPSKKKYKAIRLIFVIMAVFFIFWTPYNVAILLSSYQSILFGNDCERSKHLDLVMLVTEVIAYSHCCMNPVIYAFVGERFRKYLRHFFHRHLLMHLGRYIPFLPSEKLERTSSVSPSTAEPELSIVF
Procedure: Further, an expression vector of a gene which codes chemokine receptor CCR3 was transfected to CHO cell by using lipofectamine to obtain a stable cell strain resistant against 0.5 mg/ml of G418. The stable cell strain, 50 pM[^125 I]Eotaxin (2000 Ci/mmol, manufactured by Amersham) and a test compound were suspended in 0.2 ml of Krebs-Ringer/0.1% bovine serum albumin/0.1% glucose (pH 7.4) and incubated for 90 minutes at a temperature of 37° C. Then, it was subjected to filtration by means of a glass filter GF/C which was preliminarily impregnated in 1% polyethyleneimine, and washed with 1 ml of Krebs-Ringer/0.1% bovine serum albumin/0.1% glucose (pH 7.4), whereby radio activity on the glass filter was measured. The binding affinity to the chemokine receptors CCR3 was shown as a 50% inhibitory concentration (IC50 value) of the compounds of the present invention against [^125 I]Eotaxin binding.

[2] = control reactions: 0.01 mM Forskolin solely, or with 100 nM hMIP-1 alpha, no test compound

## C=C[C@@]1(C)CC(=O)[C@]2(O)[C@@]3(C)[C@@H](O)CCC(C)(C)[C@@H]3[C@H](O)[C@H](OC(C)=O)[C@@]2(C)O1 [Forskolin, reference compound]
Chemokine receptor CCR1; [2]
  cAMP concentration: 67.8 +/- 8.4 pmol/10^6 cells

## CC[N+]1(CC2=CCCCCCC2)CCC(NC(=O)C2c3cc(Cl)ccc3Oc3ccc(Cl)cc32)CC1 (stereo not drawn) [Example 59 (named cis for convenience), cis*-1-(1-cyclooctenylmethyl)-1-ethyl-4-(2,7-dichloroxanthene-9-carboxamido)piperidinium iodide]
CCR3
  inhibitory ratio (%) of increase in the concentration of intracellular calcium: 97%

## CC[N+]1(CC2=CCCCCCC2)CCC(NC(=O)C2c3cc(Cl)ccc3Oc3ccc(Cl)cc32)CC1 (stereo not drawn) [Example 62 (named cis for convenience), cis*-1-(1-cyclooctenylmethyl)-1-ethyl-4-(2,7-dichloroxanthene-9-carboxamido)piperidinium bromide]
[1]
  IC50: 1.8 nM
Chemokine receptor CCR3
  IC50: 0.74 nM

## O=C(NC1CCN(CC2=CCCCCCCC2)CC1)C1c2ccccc2Oc2ccccc21 [Example 61 (named cis for convenience)]
[1]
  IC50: 1.8 nM
Chemokine receptor CCR3
  IC50: 1.7 nM

## C[N+]1(CC2CCCCCCC2)CCC(NC(=O)C2c3cc(Br)ccc3Oc3ccc(Br)cc32)CC1 (stereo not drawn) [Example 22, 1-cyclooctylmethyl-1-methyl-4-(2,7-dibromoxanthene-9-carboxamido)piperidinium iodide]
[1]
  IC50: 3.9 nM
Chemokine receptor CCR3
  IC50: 13 nM

## CC[N+]1(CC2CCCCCCC2)CCC(NC(=O)C2c3cc(Br)ccc3Oc3ccc(Br)cc32)CC1 (single isomer, unassigned) [Example 26 (named cis for convenience), cis*-1-cyclooctylmethyl-1-ethyl-4-(2,7-dibromoxanthene-9-carboxamido)piperidinium iodide]
[1]
  IC50: 1.9 nM
Chemokine receptor CCR3
  IC50: 2.7 nM
CCR3
  inhibitory ratio (%) of increase in the concentration of intracellular calcium: 51%

## CC[N+]1(CC2CCCCCCC2)CCC(NC(=O)C2c3ccccc3Oc3ccccc32)CC1.[I-] (stereo not drawn) [Example 12, 1-cyclooctylmethyl-1-ethyl-4-(xanthene-9-carboxamido)piperidinium iodide]
[1]
  IC50: 5.2 nM
Chemokine receptor CCR3
  IC50: 40 nM
Chemokine receptor CCR1; 0.01 mM Forskolin + 100 nM hMIP-1 alpha + 0.01 mM test compound added 5 minutes before hMIP-1 alpha
  cAMP concentration: 81.6 +/- 4.2 pmol/10^6 cells

B1: hMIP - 1 alpha: chemokine (polypeptidic leukocytic migration factor), agonist used at 100 nM (protein, UniProt P10147 24-92, looked up)
C-C motif chemokine 3: SLAADTPTACCFSYTSRQIPQNFIADYFETSSQCSKPGVIFLTKRSRQVCADPSEEWVQKYVSDLELSA
Chemokine receptor CCR1; [2]
  cAMP concentration: 47.7 +/- 4.2 pmol/10^6 cells
